One may read the MIC as the lowest concentration that inhibits growth of the organism.

This is an account of results in patent publication US9833497B2, “Human originated EGF domain proteins and use of the same” (CHENGDU SOURCEBIO LIMITED-LIABILITY COMPANY, priority 2013, dated 2017).

Common to all, as to type: cell-based
The test system of assay [1] is E. coli BL21. Description: MIC against Gram-negative bacteria: E. coli BL21. As to conditions: E. coli BL21. In outline:
(§1)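 Bacteria grown in LB at 37° C with shaking to McFarland 0.5, pelleted and resuspended in fresh LB, then seeded at 5×10^5 CFU/mL per well. Purified recombinant human EGF domain proteins were two-fold serially diluted in triplicate and plates shaken at 37° C, 175 rpm. MIC is the lowest protein concentration with no bacterial growth.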

Assay [2] concerns Aeromonas hydrophila. Description: MIC against Gram-negative bacteria: Aeromonas hydrophila. In outline: as §1
The test system of assay [3] is Serratia marcescens. Description: MIC against Gram-negative bacteria: Serratia marcescens. In outline: as §1
The subject of assay [4] is Moraxella catarrhalis. As to the kind of experiment: MIC against Gram-negative bacteria: Moraxella catarrhalis. In outline:
as §1

The subject of assay [5] is Proteus mirabilis. As to the kind of experiment: MIC against Gram-negative bacteria: Proteus mirabilis. In short, it runs like this: as §1
Assay [6] relates to Klebsiella pneumonia. As to the kind of experiment: MIC against Gram-negative bacteria: Klebsiella pneumonia. In outline:
as §1

Assay [7] deals with Citrobacter diversus. Description: MIC against Gram-negative bacteria: Citrobacter diversus. In short, it runs like this: as §1
Assay [8] has as its system Pseudomonas aeruginosa. Description: MIC against Gram-negative bacteria: Pseudomonas aeruginosa. In short, it runs like this: as §1
Assay [9] deals with Proteus vulgaris. Description: MIC against Gram-negative bacteria: Proteus vulgaris. In outline:
as §1

In assay [10] the test system is Enterobacter cloacae. As to the kind of experiment: MIC against Gram-negative bacteria: Enterobacter cloacae. In outline: as §1
Assay [11] has as its system E. coli DH5α. As to the kind of experiment: Antibacterial activity: MIC and growth curve against E. coli DH5α in 96-well plate. As to conditions: minimal inhibitory concentration against E. coli DH5α; 96-well plate, 5×10^5 CFU/mL, 37° C., judged after 8 h. In outline: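 MIC taken as lowest protein level with no bacterial growth, tracked by A600 every 30 min during 37 °C, 175 rpm culture. Two-fold protein series 50-12.5 μg/mL final, triplicate wells, against 5×10^5 CFU/mL of LB-washed mid-log cells.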

[12] abbreviates: 10 h cultivation at 37° C., 5×10^5 CFU/mL.
The mark [13] stands for this setting: A. hydrophila, 10 h cultivation at 37° C., 5×10^5 CFU/mL.
Setting [14] is: S. marcescens, 10 h cultivation at 37° C., 5×10^5 CFU/mL.
The mark [15] stands for this setting: M. catarrhalis, 10 h cultivation at 37° C., 5×10^5 CFU/mL.
[16] abbreviates: P. mirabilis, 10 h cultivation at 37° C., 5×10^5 CFU/mL.
Setting [17] is: K. pneumonia, 10 h cultivation at 37° C., 5×10^5 CFU/mL.
[18] abbreviates: C. diversus, 10 h cultivation at 37° C., 5×10^5 CFU/mL.
Setting [19] is: P. aeruginosa, 10 h cultivation at 37° C., 5×10^5 CFU/mL.
Where [20] appears, read: P. vulgaris, 10 h cultivation at 37° C., 5×10^5 CFU/mL.
[21] abbreviates: E. cloacae, 10 h cultivation at 37° C., 5×10^5 CFU/mL.

With “PRT962 (NVDDCSPDPCHHGRCVDGIASFSCACAPGYTGTRCE; listed as Homo sapiens)”, the MIC in [1] (10 h cultivation at 37° C.) came out at 50 µg/mL; in [2] (A. hydrophila, 10 h cultivation at 37° C.), 50 µg/mL; in assay [3] (S. marcescens, 10 h cultivation at 37° C.) it was 25 µg/mL; in assay [4] (M. catarrhalis, 10 h cultivation at 37° C.) it was 25 µg/mL; in assay [5] (P. mirabilis, 10 h cultivation at 37° C.), 50 µg/mL; in [6] (K. pneumonia, 10 h cultivation at 37° C.), 12.5 µg/mL. Also, the MIC in assay [7] (C. diversus, 10 h cultivation at 37° C.) was found to be 12.5 µg/mL; in assay [8] (P. aeruginosa, 10 h cultivation at 37° C.), 25 µg/mL; in assay [9] (P. vulgaris, 10 h cultivation at 37° C.), 12.5 µg/mL; in [10] (E. cloacae, 10 h cultivation at 37° C.) it was 25 µg/mL; in [11] it was 25 µg/mL.

As to “PRT1496 (EISKCPQPCRNGGKCIGKSKCKCSKGYQGDLCS; listed as Homo sapiens)”, the “MIC (μg/mL) E. coli BL21” value in assay [1] (96-well plate, 5×10^5 CFU/mL, 37° C., 10 h) came to 25 µg/mL. The “MIC (μg/mL) A. hydrophila” value in assay [2] (Aeromonas hydrophila, 96-well plate, 5×10^5 CFU/mL, 37° C., 10 h) came to 50 µg/mL. Besides, the “MIC (μg/mL) S. marcescens” value in [3] (Serratia marcescens, 96-well plate, 5×10^5 CFU/mL, 37° C., 10 h) amounted to 25 µg/mL. In assay [4] (Moraxella catarrhalis, 96-well plate, 5×10^5 CFU/mL, 37° C., 10 h), the “MIC (μg/mL) M. catarrhalis” value was 12.5 µg/mL. Moreover, the “MIC (μg/mL) P. mirabilis” value in assay [5] (Proteus mirabilis, 96-well plate, 5×10^5 CFU/mL, 37° C., 10 h) came to 50 µg/mL. Further, the “MIC (μg/mL) K. pneumonia” value in assay [6] (Klebsiella pneumonia, 96-well plate, 5×10^5 CFU/mL, 37° C., 10 h) stood at 12.5 µg/mL. The “MIC (μg/mL) C. diversus” value in assay [7] (Citrobacter diversus, 96-well plate, 5×10^5 CFU/mL, 37° C., 10 h) came to 50 µg/mL. The “MIC (μg/mL) P. aeruginosa” value in [8] (Pseudomonas aeruginosa, 96-well plate, 5×10^5 CFU/mL, 37° C., 10 h) was determined as 12.5 µg/mL. The “MIC (μg/mL) P. vulgaris” value in [9] (Proteus vulgaris, 96-well plate, 5×10^5 CFU/mL, 37° C., 10 h) is 100 µg/mL. Further, the “MIC (μg/mL) E. cloacae” value in assay [10] (Enterobacter cloacae, 96-well plate, 5×10^5 CFU/mL, 37° C., 10 h) is 100 µg/mL. The substance also registered an MIC in assay [11] of 50 µg/mL.

For “PRT1423 (PVDPCFRANCEYQCQPLNQTSYLCVCAEGFAPIPHEPHRCQ; listed as Homo sapiens)”, the “MIC against E. coli BL21” value in assay [1] (5×10^5 CFU/mL, 10 h cultivation at 37° C.) stood at 12.5 µg/mL. For the same substance, in [2] (Aeromonas hydrophila, 5×10^5 CFU/mL, 10 h cultivation at 37° C.), the “MIC against A. hydrophila” value was 12.5 µg/mL. Besides, the “MIC against S. marcescens” value in [3] (Serratia marcescens, 5×10^5 CFU/mL, 10 h cultivation at 37° C.) amounted to 12.5 µg/mL. Further, the “MIC against M. catarrhalis” value in assay [4] (Moraxella catarrhalis, 5×10^5 CFU/mL, 10 h cultivation at 37° C.) was found to be 50 µg/mL. The “MIC against P. mirabilis” value in assay [5] (Proteus mirabilis, 5×10^5 CFU/mL, 10 h cultivation at 37° C.) turned out to be 12.5 µg/mL. The “MIC against K. pneumonia” value in [6] (Klebsiella pneumonia, 5×10^5 CFU/mL, 10 h cultivation at 37° C.) worked out at 12.5 µg/mL. The “MIC against C. diversus” value in assay [7] (Citrobacter diversus, 5×10^5 CFU/mL, 10 h cultivation at 37° C.) turned out to be 25 µg/mL. In addition, the “MIC against P. aeruginosa” value in assay [8] (Pseudomonas aeruginosa, 5×10^5 CFU/mL, 10 h cultivation at 37° C.) worked out at 12.5 µg/mL. Moreover, in assay [9] (Proteus vulgaris, 5×10^5 CFU/mL, 10 h cultivation at 37° C.), the “MIC against P. vulgaris” value turned out to be 50 µg/mL. Also, the “MIC against E. cloacae” value in assay [10] (Enterobacter cloacae, 5×10^5 CFU/mL, 10 h cultivation at 37° C.) turned out to be 12.5 µg/mL. Further, the MIC in assay [11] came out at 50 µg/mL.

Turning to “PRT217 (DIDECTIPPYCHQRCVNTPGSFYCQCSPGFQLAANNYTCV; listed as Homo sapiens)”, the “MIC (μg/mL) E. coli BL21” value in assay [1] (setting [12]) was 25 µg/mL. Besides, the “MIC (μg/mL) A. hydrophila” value in [2] (setting [13]) was 25 µg/mL. Further, the “MIC (μg/mL) S. marcescens” value in assay [3] (setting [14]) worked out at 50 µg/mL. Further, the “MIC (μg/mL) M. catarrhalis” value in assay [4] (setting [15]) was 12.5 µg/mL. Moreover, the “MIC (μg/mL) P. mirabilis” value in [5] (setting [16]) amounted to 12.5 µg/mL. Also, in assay [6] (setting [17]), the “MIC (μg/mL) K. pneumonia” value stood at 25 µg/mL. Further, the “MIC (μg/mL) C. diversus” value in [7] (setting [18]) came to 12.5 µg/mL. The “MIC (μg/mL) P. aeruginosa” value in [8] (setting [19]) was found to be 12.5 µg/mL. For the same substance, the “MIC (μg/mL) P. vulgaris” value in assay [9] (setting [20]) is 12.5 µg/mL. Further, the “MIC (μg/mL) E. cloacae” value in [10] (setting [21]) turned out to be 12.5 µg/mL. This substance also came in with an MIC in assay [11] of 12.5 µg/mL.

Take “PRT823 (FGEACAQRCSCPPGAACHHVTGACRCPPGFTGSGCE; listed as Homo sapiens)”: in assay [1] (setting [12]), the “MIC (μg/mL) E. coli BL21” value is 12.5 µg/mL. Further, the “MIC (μg/mL) A. hydrophila” value in [2] (setting [13]) worked out at 12.5 µg/mL. For the same substance, in assay [3] (setting [14]), the “MIC (μg/mL) S. marcescens” value was determined as 50 µg/mL. Further, the “MIC (μg/mL) M. catarrhalis” value in assay [4] (setting [15]) worked out at 50 µg/mL. The “MIC (μg/mL) P. mirabilis” value in assay [5] (setting [16]) was 25 µg/mL. The “MIC (μg/mL) K. pneumonia” value in assay [6] (setting [17]) came to 12.5 µg/mL. Besides, the “MIC (μg/mL) C. diversus” value in [7] (setting [18]) amounted to 25 µg/mL. In addition, the “MIC (μg/mL) P. aeruginosa” value in assay [8] (setting [19]) is 25 µg/mL. In addition, the “MIC (μg/mL) P. vulgaris” value in assay [9] (setting [20]) turned out to be 12.5 µg/mL. Besides, the “MIC (μg/mL) E. cloacae” value in [10] (setting [21]) was 25 µg/mL. This substance also registered an MIC in assay [11] of 25 µg/mL.
